# Tests used:
# [1] = target: T1, ASM (acid sphingomyelinase) (Mus musculus, UniProt Q04519); assay: ASM concentration levels in plasma and brain tissue of APP/PS1 mice after feeding via drinking water; assay type: in vivo; conditions: 100 mg/kg/day via drinking water; for ASM concentration level in brain tissues / ASM concentration level in plasma: 9.5 month-old APP/PS1 mice, versus unfed APP/PS1 mice
# T1 construct: from tissue; host or cells: plasma and brain tissue of APP/PS1 transgenic mice (C57BL/6 background)
# T1 sequence (Q04519 45-627): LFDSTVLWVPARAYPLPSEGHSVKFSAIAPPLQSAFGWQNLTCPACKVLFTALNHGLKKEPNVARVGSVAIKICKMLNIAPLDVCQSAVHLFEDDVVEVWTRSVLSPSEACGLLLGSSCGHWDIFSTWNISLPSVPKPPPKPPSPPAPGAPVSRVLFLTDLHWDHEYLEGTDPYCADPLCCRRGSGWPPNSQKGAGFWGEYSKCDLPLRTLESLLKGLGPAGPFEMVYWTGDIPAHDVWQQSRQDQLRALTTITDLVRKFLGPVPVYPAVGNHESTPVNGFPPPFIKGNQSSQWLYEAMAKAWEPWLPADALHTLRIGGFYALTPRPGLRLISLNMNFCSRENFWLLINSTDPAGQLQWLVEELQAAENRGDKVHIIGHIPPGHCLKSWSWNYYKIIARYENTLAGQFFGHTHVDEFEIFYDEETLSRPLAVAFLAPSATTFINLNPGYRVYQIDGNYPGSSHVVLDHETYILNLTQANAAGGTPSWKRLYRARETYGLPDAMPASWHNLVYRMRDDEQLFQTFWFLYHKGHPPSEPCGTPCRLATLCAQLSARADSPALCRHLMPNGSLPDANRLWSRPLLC
# Source text: IACUC (Kyungpook National University Institutional Animal Care and Use Committee) approved the present mouse experiment. A transgenic mouse line overexpressing APPswe (hAPP695swe) or PS1 (presenilin-1M146V) was used based on C57BL/6 mouse (Charles River, UK) (hereinafter, APP mouse: APPswe-overexpressing mouse, PS1 mouse: presenilin-1M146V overexpressing mouse; GlaxoSmithKline). To confirm the therapeutic effect of the novel ASM inhibitory compounds, the novel ASM inhibitory compound or AMI were fed via drinking water at a dose of 100 mg/kg/day to mice at 5.5 months of age. Three months after the feeding, behavioral analysis on the mice was performed, followed by sampling of mouse brain tissues (FIG. 3). The concentration levels of ASM were measured as follows. Specifically, a microliter mouse plasma, brain tissue and 3 μl of fibroblast samples were mixed with ASM activity buffer and stored at 37° C. 114 μl of ethanol was added to terminate the hydrolysis reaction, followed by centrifugation. 30 μl of the supernatant was transferred to a glass vial, of which 5 μl was applied to the UPLC system. The ASM concentration levels were quantified by comparison with Bodipy (aminoacetaldehyde) conjugated with sphingomyelin and ceramide. Extraction and quantification of the sphingomyelin and ceramide were performed by extracting lipids from known method samples and resuspending the dried lipid extract in 25 μl of 0.2% Igepal CA-630 (Sigma-Aldrich). Each lipid level was quantified using the UPLC system. Using an experimental animal model APP/PS1 mouse for Alzheimer's disease patients, ASM concentration levels in plasma and brain tissues were measured after administration of AMI, which is the most widely used as an ASM inhibitor, and the novel ASM inhibitory compound of the Chemical Formula 2.
# [2] = system: APP/PS1 mice; assay: Fear conditioning test in APP/PS1 mice; assay type: in vivo, mouse; conditions: 100 mg/kg/day via drinking water
# Protocol: (§1) To confirm the therapeutic effect of the novel ASM inhibitory compounds, the novel ASM inhibitory compound or AMI were fed via drinking water at a dose of 100 mg/kg/day to mice at 5.5 months of age. Three months after the feeding, behavioral analysis on the mice was performed, followed by sampling of mouse brain tissues (FIG. 3).
# (§2) Morris water maze (MWM) and fear conditioning experiments were conducted to identify potential effects on learning and memory. For MWM, the mice were learned the task four times a day for 10 days, followed by the removal of the platform at the 11th day and subsequently a probe trial. On the first day of the fear conditioning, the mice were placed in the conditioning chamber and subjected to sound stimulation (10 kHz, 70 dB) and electrical stimulation (0.3 mA, 1s). On the second day, their memory was checked without stimulation in the same conditioning chamber as on the first day. On the third day, memory tests were conducted for fear when only sound stimulation was given in another conditioning chamber. Open field tests and dark & light tests were conducted to assess activity and anxiety. In the open field test, the mice were placed in a square box for 10 minutes to measure their overall activity and time spent wandering the wall and center. […]
# [3] = system: APP/PS1 mice; assay: Open field test and dark & light test (activity and anxiety) in APP/PS1 mice; assay type: in vivo, mouse; conditions: 100 mg/kg/day via drinking water, versus APP/PS1 mice
# Protocol: as §1, §2
# [4] = system: APP/PS1 mice; assay: Astrocytes (GFAP immunofluorescence) in cerebral cortex of APP/PS1 mice; assay type: in vivo, mouse; conditions: 100 mg/kg/day via drinking water, versus APP/PS1 mice
# Protocol: as §1
# After fixing the cerebrum and hippocampus of the test mice, 0.5% thioflavin S (Sigma-Aldrich), anti-20G10 antibodies (Mouse, 1:1000) against Aβ, 42 and anti-G30 antibodies (rabbit, 1:1000) against Aβ, 40, anti-GFAP antibodies (rabbit, 1:500, DAKO) were cultured together. The above sites were analyzed using a laser scanning confocal microscope equipped with Fluoview SV1000 imaging software (Olympus FV1000, Japan) or an Olympus BX51 microscope. Percentage of area of stained area to total tissue area was quantified and analyzed using Metamorph software (Molecular Devices).
# (§3) In order to determine the effect of the novel ASM inhibitory compounds according to the present invention on the change of nerve inflammation in the APP/PS1 mice, the present inventors observed a change in astrocytes of their brains.
# [5] = system: APP/PS1 mice; assay: Real-time quantitative PCR of inflammatory cytokines (TNF-α, IL-1b, IL-6) in brain of APP/PS1 mice; assay type: in vivo, mouse; conditions: mRNA, cerebral cortex, 100 mg/kg/day via drinking water, versus wild-type
# Protocol: as §1
# Real-time quantitative PCR was used to measure the expression levels of inflammatory cytokines (TNF-α, IL-1b, and IL-6). Total RNAs were extracted from brain tissues using RNeasy Plus mini kit (Qiagen, Korea, Ltd.), while cDNAs were synthesized from 5 μg of total RNAs using a kit from Clontech (Mountain View, Calif.). Also, using Corbett research RG-6000 real-time PCR instrument, PCR was performed at 95° C. for 10 minutes; 95° C. for 10 seconds; 58° C. for 15 seconds; 72° C. for 20 seconds as one cycle, while real-time quantitative PCR was performed in which 40 cycles were repeated.
# as §3
compound,measurement,setting,value
"CN(C)CCC=C1c2ccccc2CCc2ccccc21 [AMI, amitriptyline, reference compound]",ASM concentration level in brain tissues,[1],remarkably low
same,ASM concentration level in plasma,[1],remarkably low
"CCCCCCCCCCCCn1cc(C(N)(CO)CO)nn1 [Chemical Formula 2, 2-amino-2-(1-dodecyl-1H-1,2,3-triazol-4-yl)propane-1,3-diol]",memory in the fear conditioning test (contextual and tone tasks),[2],effect of improving the memory
same,ASM concentration level in brain tissues,[1],remarkably low
same,ASM concentration level in plasma,[1],remarkably low
same,ASM inhibition in plasma and brain tissues compared with AMI,[1]; APP/PS1 mice,more significantly effective in inhibiting ASM activity than AMI
same,activity and anxiety,[3],significantly improved
same,activity of astrocytes (GFAP),[4],significantly decreased
same,gene expression of IL-1b,[5],restored to their normal levels
same,gene expression of IL-6,[5],restored to their normal levels
same,gene expression of TNF-α,[5],restored to their normal levels
